Experiment [1] deals with CRISPR edited HMLE cell lines (ERCC3 heterozygous mutants). The experiment in a line: Cell viability after IlludinS, CRISPR/Cas9 edited ERCC3 heterozygous mutant cells. Type of experiment: cell-based, human. As to the method:
(§1) Overexpression of ERCC3 mutant constructs […] physiological levels of protein in a germline heterozygous mutation state within cells. Therefore, using CRISPR/Cas9, we engineered several heterozygous mutations in the mammary epithelial cell line HMLE that mimic the site of the originally discovered recurrent mutation in breast cancer individuals (Table 3, FIG. 4).
(§2) For viability assessment following treatment with IlludinS (Cayman Chemical), cells were seeded into 96 well plates 24 hours prior to treatment. For post-UV viability assays, cells were exposed to the appropriate doses of UV irradiation and subsequently seeded into 96 well plates. Cell viability was measured after 72 hours using the CellTiter-Glo® Luminescent Cell Viability Assay (Promega).

The test system of experiment [2] is XPCS2BA cells stably overexpressing ERCC3 R109X. The experiment in a line: Cell viability after IlludinS, cells overexpressing the ERCC3 R109X mutant (CellTiter-Glo). The class given is cell-based, human. As to the method:
(§3) To understand whether this variant has a deleterious effect on the gene function, we carried out a series of in vitro functional assays. Using a previously well characterized ERCC3 deficient cell line derived from an XP/CS patient (7), phenotype rescue after DNA damage was assessed by cell viability assay. […] Similarly, following UVC irradiation at a dose of 10 J/m^2, 72 hours post-exposure, 42% of the R109X cells survived compared to 63% of WT cells (P<0.0001). At a dose of […], these numbers reduced more drastically for the mutant, showing the same trend as the IlludinS exposure experiment. (FIG. 2D).
as §2
In general terms: In ATP-based viability assays light output follows the ATP content of the culture.

Experiment [3] concerns γ-H2AX in HMLE control and ERCC3 CRISPR edited cell lines. The class given is cell-based, human. To be noted: 8 ng/ml IlludinS for 1 h; ERCC3 CRISPR mutants vs wild type, P<0.05. As to the method:
To assess the induction and removal of phosphorylated H2AX in response to DNA damage we performed immunostaining and flow cytometric analysis of γ-H2AX positive cells following treatment with IlludinS.
For flow cytometric analysis, 24 h after seeding, cells were either left untreated or were treated with 8 ng/ml IlludinS for 1 h. Treated cells were subsequently washed with PBS and supplemented with drug-free medium. The cells were harvested at different time points after treatment and fixed with 4% PFA for 10 min at RT. Cells were quickly chilled on ice and ice-cold MeOH was added to a final concentration of 90%. The cells were incubated on ice for 30 min and stored at −20° C. For immunostaining the cells were washed twice with PBS/0.5% BSA and incubated with anti phospho-Histone H2A.X (Ser139) Antibody (1:250; Cell Signaling Technology) for 1 h at RT, washed again and incubated with Alexa-488 conjugated secondary antibody for 45 min at RT. For each condition 20.000 cells were recorded and data from two replicate experiments was analyzed using the FlowJo software (V10.1).

Experiment [4] deals with XPCS2BA cells stably overexpressing ERCC3 WT. The experiment in a line: Cell viability after IlludinS, cells overexpressing wild-type ERCC3 (CellTiter-Glo). The class given is cell-based, human. As to the method: as §3, §2
Experiment [5] relates to XPCS2BA parental cell line. The experiment in a line: Cell viability after IlludinS, parental ERCC3-deficient cell line (CellTiter-Glo). Type of experiment: cell-based, human. As to the method:
as §3, §2

The subject of a further experiment is parental HMLE cells. The experiment can be described thus: Cell viability after IlludinS, parental mammary epithelial cells. Type of experiment: cell-based, human. To be noted: 2 ng/ml IlludinS, 72 hours. As for the experimental part: as §1, §2
Experiment [6] concerns R109X H-RAS-V12 HMLE cells vs WT H-RAS-V12 HMLE cells. The experiment in a line: Cell viability after Irofulven, hRAS-V12 expressing ERCC3 WT vs R109X HMLE cells. The note with it: 72 hours, increasing doses, hRAS-V12 HMLE R109X heterozygous. Type of experiment: cell-based, human. As for the experimental part: as §2
(§4) In vitro experiments were performed to compare the effects of Irofulven on cell viability of ERCC3 WT HMLE cells and CRISPR-edited HMLE cells heterozygous for the ERCC3 R109X mutation. These same cell lines were used in Example 1 to assess sensitivity to IlludinS. Cell viability was assessed 72 hours following treatment of the cells with increasing doses of Irofulven. FIG. 11A provides the results in graphical form. Similar experiments were also performed using cells similar to those described above (i.e. that were either ERCC3 WT or R109X) but that also stably expressed mutant hRAS-V12. (These hRAS-V12 cells were used for xenograft generation in the in vivo experiments described below). FIG. 11B provides results showing the effects of Irofulven on cell viability of the +/+WT H-RAS-V12 HMLE cells the heterozygous+/−R109X H-RAS-V12 HMLE cells. The data shown in both FIG. 11A and FIG. 11B represents the mean of three experiments with error bars representing the SEM.

The subject of experiment [7] is ERCC3 R109X HMLE HRAS-V12 tumors. The experiment can be described thus: Mouse xenograft model, ERCC3 R109X mutant tumors. Type of experiment: in vivo, athymic nude mice. As to the method:
(§5) To assess the effect of the ERCC3 R109X mutation on Irolfulven sensitivity in vivo, a tumor xenograft system was generated and used. As described above, ERCC3 WT and ERCC3-mutant (R109X) cells were made in an HMLE HRAS-V12 background. These cells were injected into the flanks of athymic nude mice. The resultant tumors were allowed to grow to a size of about 100 mm^3. Treatment was then started. Either a vehicle control or Irofulven (at a dose of either 3.5 mg/kg or 7 mg/kg) was injected intraperitoneally (IP) daily for 5 consecutive days (the treatment “on” time), followed by a period of 16 days of treatment “off” time—making one 21-day cycle. Treatment cycles were then repeated. This treatment regimen was similar to that employed in several reported human clinical trials of Irofulven. The size of the tumors was measured weekly. […] In the ERCC3 WT xenograft group the average tumor size at treatment initiation was 97.7 mm^3 (74.6-120.3 mm^3). In the ERCC3 R109X xenograft group the average tumor size at treatment initiation was 172.8 mm^3 (101.8-238.6 mm^3). […] Additional experiments are underway to further validate these preliminary findings.

Experiment [8] deals with ERCC3 expression in ERCC3 mutant tumors. The experiment in a line: Real time PCR of ERCC3 transcript in xenograft tumors. To be noted: two treatment cycles of Irofulven. Type of experiment: in vivo, athymic nude mice.
The test system of experiment [9] is ERCC3 WT HMLE HRAS-V12 tumors. The experiment in a line: Mouse xenograft model, ERCC3 WT tumors. To be noted: 3.5 mg/kg or 7 mg/kg IP daily for 5 days per 21-day cycle. Type of experiment: in vivo, athymic nude mice. As to the method:
as §5

Experiment [10] relates to HMLE+/R109X cells vs HMLE+/+ cells. The experiment can be described thus: Cell viability after Irofulven, ERCC3 WT vs R109X heterozygous HMLE cells. The note with it: 72 hours, increasing doses. Type of experiment: cell-based, human. As for the experimental part:
as §2, §4

Structures are written as SMILES.

`CC1=C2C(=C[C@@](C)(CO)[C@@H]2O)C(=O)[C@](C)(O)C12CC2` [IlludinS, Illudin S]: the cell survival entry in [1] (2 ng/ml IlludinS, 72 hours, CRISPR edited HMLE, P<0.0001) is “significantly reduced survival”; in [4] (4 ng/ml IlludinS), “most of the WT cells survived”; in the experiment on parental HMLE cells, “all the parental HMLE cells survived”. The relative cell viability entry in experiment [1] (72 hours after exposure to IlludinS, ERCC3 CRISPR clones) is “substantial reduction in relative cell viability”. Further, the “response to IlludinS after stable overexpression of WT ERCC3 (rescue)” value in [1] (ERCC3 CRISPR cell lines re-expressing WT ERCC3) is recorded as “same response to IlludinS as the WT HMLE cell line”. Further, the cells survived in experiment [2] (2 ng/ml IlludinS, 72 hours, R109X overexpressing XPCS2BA) is recorded as 42%; in experiment [4] (2 ng/ml IlludinS, 72 hours), 77%; in experiment [5] (2 ng/ml IlludinS, 72 hours, XPCS2BA), 3%. Moreover, the “cell death compared to ERCC3 WT” value in [2] (increasing doses of IlludinS, R109X overexpressing cells) is reported as “significantly higher cell death”. The “reduction in γ-H2AX after DNA damage” value in experiment [3] is on record as “significantly lower”. Besides, in [5] (higher doses of IlludinS, untransfected cells), the cell death entry is “all died”.

Take `CC1=C(CO)C2=C(C)C3(CC3)[C@@](C)(O)C(=O)C2=C1` [Irofulven, 6-hydroxymethylacylfulvene]: the “sensitivity to Irofulven (inhibition of cell viability) vs ERCC3 WT cells” value in [6] and in [10] was “much more sensitive” in each case. For the same compound, the tumor growth entry in experiment [7] (3.5 mg/kg or 7 mg/kg IP daily for 5 days per 21-day cycle) and in experiment [9] was “significant reduction” in each case. In experiment [7] (preliminary studies), the “sensitivity to tumor inhibitory effects compared to ERCC3 WT tumors” value is “may have been more sensitive”. The “ERCC3 expression (relative transcript level)” value in experiment [8] is “upregulated”.

For the origin of these results see patent US20210137850A1, “DIAGNOSIS & TREATMENT OF ERCC3-MUTANT CANCER” (MEMORIAL SLOAN KETTERING CANCER CENTER, priority 2017, published 2021).
